Measurements taken from patent US20110230481A2, “DERIVATIVES OF TETRABROMOBENZIMIDAZOLE, A PROCESS FOR THE PREPARATION THEREOF, A PHARMACEUTICAL COMPOSITION COMPRISING THE SAME, A METHOD OF USING THE SAME, A METHOD FOR MODULATING OR REGULATING SERINE/THREONINE KINASES, AND SERINE/THREONINE KINASES MODULATING AGENT” (SELVITA S.A., priority 2009, published 2011).

Assays:
Assay in all cases: KINOMEscan Max
Type in all cases: binding
[1] = molecular target: T1, PRKG1 (Homo sapiens, UniProt Q13976)
T1 construct: DNA tag (qPCR read-out)
In short: (§1)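 Immobilized active-site directed ligand captures DNA-tagged kinase unless test compound competes it off; captured kinase is then quantified by qPCR of the DNA tag.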

[2] = molecular target: T2, HIPK2 (Homo sapiens, UniProt Q9H2X6)
T2 construct: DNA tag (qPCR read-out); purchased Ambit Kinomescan
In short: as §1

[3] = molecular target: T3, FGFR3 (Homo sapiens, UniProt P22607)
T3 construct: purchased Ambit (KINOMEscan Max service)
In short: as §1

[4] = molecular target: T4, PRKG2 (Homo sapiens, UniProt Q13237)
T4 construct: DNA tag (qPCR read-out); purchased Ambit Kinomescan
In short: as §1

[5] = molecular target: T5, GSK3B (Homo sapiens, UniProt P49841)
T5 construct: purchased Ambit Kinomescan (contract panel, KINOMEscan Max)
In short: as §1

[6] = molecular target: T6, CDKL2 (Homo sapiens, UniProt Q92772)
T6 construct: purchased Ambit (KINOMEscan Max service)
In short: as §1

[7] = molecular target: T7, LIMK2 (Homo sapiens, UniProt P53671)
T7 construct: purchased Ambit Kinomescan (contract screening)
In short: as §1

[8] = molecular target: T8, ROS1 (Homo sapiens, UniProt P08922)
T8 construct: DNA tag (qPCR read-out)
In short: as §1

[9] = molecular target: T9, CAMKK1 (Homo sapiens, UniProt Q8N5S9)
T9 construct: DNA tag (qPCR label); purchased Ambit Kinomescan (contract screening)
In short: as §1

[10] = molecular target: T10, JNK3 (Homo sapiens, UniProt P53779); details: 1 μM
T10 construct: purchased Ambit Kinomescan (contract panel)
In short: as §1

[11] = molecular target: T11, KIT(V559D.V654A) (Homo sapiens, UniProt P10721, V559D/V654A)
T11 construct: purchased Ambit Kinomescan (contract panel)
In short: as §1

[12] = molecular target: EGFR(L858R) (Homo sapiens, UniProt P00533, L858R); details: 1 μM
In short: as §1

[13] = molecular target: T12, TYK2(JH2domain-pseudokinase) (Homo sapiens, UniProt P29597); details: 1 μM
T12 construct: TYK2(JH2domain-pseudokinase); purchased Ambit Kinomescan (contract screening service)
In short: as §1

[14] = molecular target: T13, EPHA1 (Homo sapiens, UniProt P21709)
T13 construct: purchased Ambit (KINOMEscan Max panel service)
In short: as §1

[15] = molecular target: T14, QSK (Homo sapiens, UniProt Q9Y2K2); details: 1 μM
T14 construct: DNA tag (qPCR read-out)
In short: as §1

[16] = molecular target: T15, FLT3(D835Y) (Homo sapiens, UniProt P36888, D835Y)
T15 construct: DNA tag (qPCR read-out); purchased Ambit Kinomescan
In short: as §1

[17] = molecular target: T16, SYK (Homo sapiens, UniProt P43405); details: 1 μM
T16 construct: DNA tag (qPCR read-out)
In short: as §1

[18] = molecular target: PAK3 (Homo sapiens, UniProt O75914)
In short: as §1

[19] = molecular target: T17, RIPK2 (Homo sapiens, UniProt O43353)
T17 construct: DNA tag (qPCR read-out)
In short: as §1

[20] = molecular target: T18, IGF1R (Homo sapiens, UniProt P08069)
T18 construct: purchased Ambit Kinomescan (contract panel, KINOMEscan Max)
In short: as §1

[21] = molecular target: T19, RET(M918T) (Homo sapiens, UniProt P07949, M918T)
T19 construct: DNA tag (qPCR read-out)
In short: as §1

[22] = molecular target: ABL1(E255K)-phosphorylated) (Homo sapiens, UniProt P00519, E255K)
In short: as §1

[23] = molecular target: MINK (Homo sapiens, UniProt Q8N4C8)
In short: as §1

[24] = molecular target: T20, EPHA8 (Homo sapiens, UniProt P29322)
T20 construct: purchased Ambit (KINOMEscan Max service)
In short: as §1

[25] = molecular target: STK33 (Homo sapiens, UniProt Q9BYT3)
In short: as §1

[26] = molecular target: T21, FGFR1 (Homo sapiens, UniProt P11362)
T21 construct: purchased Ambit Kinomescan (contract panel, KINOMEscan Max)
In short: as §1

[27] = molecular target: PRKCQ (Homo sapiens, UniProt Q04759)
In short: as §1

[28] = molecular target: MST1R (Homo sapiens, UniProt Q04912)
In short: as §1

[29] = molecular target: NEK5 (Homo sapiens, UniProt Q6P3R8)
In short: as §1

[30] = molecular target: NEK9 (Homo sapiens, UniProt Q8TD19)
In short: as §1

[31] = molecular target: T22, MAP3K2 (Homo sapiens, UniProt Q9Y2U5)
T22 construct: purchased Ambit Kinomescan (contract panel)
In short: as §1

[32] = molecular target: T23, DAPK2 (Homo sapiens, UniProt Q9UIK4)
T23 construct: DNA tag (qPCR read-out)
In short: as §1

[33] = molecular target: T24, EPHB2 (Homo sapiens, UniProt P29323); details: 1 μM
T24 construct: purchased Ambit (KINOMEscan Max service)
In short: as §1

[34] = molecular target: T25, DMPK (Homo sapiens, UniProt Q09013)
T25 construct: purchased Ambit (KINOMEscan Max panel service)
In short: as §1

T7 sequence (P53671 whole entry): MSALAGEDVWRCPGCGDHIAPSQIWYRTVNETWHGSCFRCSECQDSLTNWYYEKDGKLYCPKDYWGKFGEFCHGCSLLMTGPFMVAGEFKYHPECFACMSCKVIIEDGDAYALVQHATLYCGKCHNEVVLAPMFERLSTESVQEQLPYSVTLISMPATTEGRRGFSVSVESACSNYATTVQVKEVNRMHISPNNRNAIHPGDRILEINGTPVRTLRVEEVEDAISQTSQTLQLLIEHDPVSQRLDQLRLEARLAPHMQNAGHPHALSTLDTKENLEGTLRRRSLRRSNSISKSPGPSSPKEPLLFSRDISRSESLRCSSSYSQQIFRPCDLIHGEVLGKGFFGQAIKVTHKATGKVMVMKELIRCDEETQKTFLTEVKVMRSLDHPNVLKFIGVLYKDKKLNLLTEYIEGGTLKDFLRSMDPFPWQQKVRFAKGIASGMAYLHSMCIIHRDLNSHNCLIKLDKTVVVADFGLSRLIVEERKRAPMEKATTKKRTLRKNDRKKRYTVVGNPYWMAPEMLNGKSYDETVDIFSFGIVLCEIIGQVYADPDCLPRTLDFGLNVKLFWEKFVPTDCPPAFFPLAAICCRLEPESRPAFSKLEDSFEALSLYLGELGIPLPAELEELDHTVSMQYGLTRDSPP
T5 sequence (P49841 whole entry): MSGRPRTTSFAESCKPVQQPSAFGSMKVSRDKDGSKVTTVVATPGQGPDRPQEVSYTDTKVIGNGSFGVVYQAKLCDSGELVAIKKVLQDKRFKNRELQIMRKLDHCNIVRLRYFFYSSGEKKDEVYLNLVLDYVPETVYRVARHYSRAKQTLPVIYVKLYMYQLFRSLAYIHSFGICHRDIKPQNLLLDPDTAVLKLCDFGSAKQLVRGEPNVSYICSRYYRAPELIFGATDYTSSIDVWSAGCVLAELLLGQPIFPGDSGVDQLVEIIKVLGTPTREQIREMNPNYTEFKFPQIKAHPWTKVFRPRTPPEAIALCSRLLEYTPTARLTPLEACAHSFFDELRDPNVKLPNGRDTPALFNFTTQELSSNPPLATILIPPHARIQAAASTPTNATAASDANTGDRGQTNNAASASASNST
T17 sequence (O43353 whole entry): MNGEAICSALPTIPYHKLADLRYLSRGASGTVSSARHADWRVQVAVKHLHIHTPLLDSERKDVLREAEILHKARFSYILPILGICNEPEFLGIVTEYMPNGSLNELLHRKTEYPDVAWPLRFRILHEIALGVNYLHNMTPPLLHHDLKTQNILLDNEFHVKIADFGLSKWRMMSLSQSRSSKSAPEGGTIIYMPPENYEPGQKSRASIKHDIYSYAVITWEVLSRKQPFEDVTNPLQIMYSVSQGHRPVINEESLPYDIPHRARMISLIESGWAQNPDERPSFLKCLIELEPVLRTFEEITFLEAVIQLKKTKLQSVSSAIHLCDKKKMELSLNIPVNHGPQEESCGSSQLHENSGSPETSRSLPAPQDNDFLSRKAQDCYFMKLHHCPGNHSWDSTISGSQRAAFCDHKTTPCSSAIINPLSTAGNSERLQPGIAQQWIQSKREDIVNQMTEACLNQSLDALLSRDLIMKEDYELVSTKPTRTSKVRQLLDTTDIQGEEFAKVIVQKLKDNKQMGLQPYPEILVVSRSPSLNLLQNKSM
T13 sequence (P21709 26-976): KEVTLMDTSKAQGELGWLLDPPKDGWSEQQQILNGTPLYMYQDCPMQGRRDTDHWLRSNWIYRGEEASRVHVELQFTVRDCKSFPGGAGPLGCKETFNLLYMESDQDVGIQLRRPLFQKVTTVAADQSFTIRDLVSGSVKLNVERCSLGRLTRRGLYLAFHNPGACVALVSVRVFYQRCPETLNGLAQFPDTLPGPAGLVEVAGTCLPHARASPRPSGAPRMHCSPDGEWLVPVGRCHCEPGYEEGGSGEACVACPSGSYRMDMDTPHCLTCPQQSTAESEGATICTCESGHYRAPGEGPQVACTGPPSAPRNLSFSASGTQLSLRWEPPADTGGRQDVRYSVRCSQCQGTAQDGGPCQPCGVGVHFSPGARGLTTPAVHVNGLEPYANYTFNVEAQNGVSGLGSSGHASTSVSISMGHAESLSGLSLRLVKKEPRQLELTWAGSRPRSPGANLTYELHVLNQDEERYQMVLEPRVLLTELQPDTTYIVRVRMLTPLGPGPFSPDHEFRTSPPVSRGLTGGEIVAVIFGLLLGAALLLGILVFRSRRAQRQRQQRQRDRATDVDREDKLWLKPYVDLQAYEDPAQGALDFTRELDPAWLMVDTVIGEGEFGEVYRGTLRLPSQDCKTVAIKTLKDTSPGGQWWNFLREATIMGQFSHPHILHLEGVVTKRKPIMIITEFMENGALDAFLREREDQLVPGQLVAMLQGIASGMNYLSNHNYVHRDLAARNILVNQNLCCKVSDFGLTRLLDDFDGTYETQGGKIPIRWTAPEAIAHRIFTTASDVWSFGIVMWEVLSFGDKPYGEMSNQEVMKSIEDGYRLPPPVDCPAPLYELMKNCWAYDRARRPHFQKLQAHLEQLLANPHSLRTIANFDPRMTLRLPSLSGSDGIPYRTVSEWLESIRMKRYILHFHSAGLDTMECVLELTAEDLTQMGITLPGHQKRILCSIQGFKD
T21 sequence (P11362 22-822): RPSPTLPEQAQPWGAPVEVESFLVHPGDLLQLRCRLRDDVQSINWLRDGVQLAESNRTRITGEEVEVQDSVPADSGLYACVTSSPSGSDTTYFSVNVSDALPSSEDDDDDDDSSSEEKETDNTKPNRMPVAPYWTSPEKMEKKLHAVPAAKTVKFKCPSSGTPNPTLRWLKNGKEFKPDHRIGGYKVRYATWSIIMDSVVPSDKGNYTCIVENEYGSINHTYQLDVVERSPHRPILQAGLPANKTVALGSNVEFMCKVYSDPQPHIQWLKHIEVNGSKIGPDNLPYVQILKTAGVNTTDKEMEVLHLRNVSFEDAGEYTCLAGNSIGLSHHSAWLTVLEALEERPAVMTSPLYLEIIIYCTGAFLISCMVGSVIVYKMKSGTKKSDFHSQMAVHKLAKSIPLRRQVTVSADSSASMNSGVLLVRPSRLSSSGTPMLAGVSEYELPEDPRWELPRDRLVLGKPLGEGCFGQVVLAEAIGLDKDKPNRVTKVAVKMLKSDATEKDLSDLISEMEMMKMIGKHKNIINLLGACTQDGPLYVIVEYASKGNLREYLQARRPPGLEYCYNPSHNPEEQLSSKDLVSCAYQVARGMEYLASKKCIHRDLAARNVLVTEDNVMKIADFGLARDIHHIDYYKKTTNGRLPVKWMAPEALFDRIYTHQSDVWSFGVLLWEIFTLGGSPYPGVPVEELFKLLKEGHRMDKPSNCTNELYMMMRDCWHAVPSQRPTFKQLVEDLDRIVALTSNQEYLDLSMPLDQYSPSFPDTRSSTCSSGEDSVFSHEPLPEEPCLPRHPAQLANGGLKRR
ABL1(E255K)-phosphorylated), sequence (P00519 whole entry E255K): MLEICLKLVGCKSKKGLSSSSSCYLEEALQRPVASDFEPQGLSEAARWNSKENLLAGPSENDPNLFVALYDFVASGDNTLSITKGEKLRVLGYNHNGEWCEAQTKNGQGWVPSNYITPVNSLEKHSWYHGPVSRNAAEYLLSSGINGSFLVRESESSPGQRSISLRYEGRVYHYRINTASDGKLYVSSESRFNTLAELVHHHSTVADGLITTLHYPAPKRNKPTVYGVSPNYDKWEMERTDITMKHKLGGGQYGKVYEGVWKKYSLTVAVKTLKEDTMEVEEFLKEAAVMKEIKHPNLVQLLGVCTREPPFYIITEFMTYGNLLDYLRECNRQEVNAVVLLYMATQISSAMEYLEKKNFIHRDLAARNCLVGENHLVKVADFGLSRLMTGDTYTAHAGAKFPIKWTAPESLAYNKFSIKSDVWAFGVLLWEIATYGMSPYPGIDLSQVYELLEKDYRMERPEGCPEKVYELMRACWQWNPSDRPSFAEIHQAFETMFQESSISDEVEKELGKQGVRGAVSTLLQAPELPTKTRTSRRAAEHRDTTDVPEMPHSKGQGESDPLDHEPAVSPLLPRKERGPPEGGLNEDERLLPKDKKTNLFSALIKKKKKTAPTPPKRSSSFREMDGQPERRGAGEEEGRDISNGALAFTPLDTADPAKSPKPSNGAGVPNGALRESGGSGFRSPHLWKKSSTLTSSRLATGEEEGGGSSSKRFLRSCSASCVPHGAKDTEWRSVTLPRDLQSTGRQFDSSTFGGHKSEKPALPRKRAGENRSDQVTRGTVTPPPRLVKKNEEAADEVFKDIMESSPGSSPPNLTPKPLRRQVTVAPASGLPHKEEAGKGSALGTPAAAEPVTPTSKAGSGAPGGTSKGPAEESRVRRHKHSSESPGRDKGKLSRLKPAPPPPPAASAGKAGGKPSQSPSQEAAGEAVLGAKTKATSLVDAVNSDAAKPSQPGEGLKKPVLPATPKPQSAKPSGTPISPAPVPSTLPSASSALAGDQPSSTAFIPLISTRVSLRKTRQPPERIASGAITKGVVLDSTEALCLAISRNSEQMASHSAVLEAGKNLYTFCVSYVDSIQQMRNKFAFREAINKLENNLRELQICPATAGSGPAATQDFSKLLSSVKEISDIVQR
T23 sequence (Q9UIK4 whole entry): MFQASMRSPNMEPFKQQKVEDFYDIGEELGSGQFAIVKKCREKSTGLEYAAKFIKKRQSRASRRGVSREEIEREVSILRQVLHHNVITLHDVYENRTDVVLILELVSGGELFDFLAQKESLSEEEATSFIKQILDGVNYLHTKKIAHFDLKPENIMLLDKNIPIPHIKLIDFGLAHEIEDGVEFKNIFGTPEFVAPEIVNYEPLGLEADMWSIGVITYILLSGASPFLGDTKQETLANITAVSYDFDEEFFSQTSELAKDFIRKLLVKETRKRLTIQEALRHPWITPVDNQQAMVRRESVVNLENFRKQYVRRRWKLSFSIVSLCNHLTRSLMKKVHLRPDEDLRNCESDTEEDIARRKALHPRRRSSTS

NCCCNc1nc2c(Br)c(Br)c(Br)c(Br)c2[nH]1 [Compound 11, N-(3-aminopropyl)-4,5,6,7-tetrabromo-1H-benzo[d]imidazol-2-amine]
remaining binding at 1 µM [1]: 53% | remaining binding at 1 µM [2]: 0.8% | remaining binding at 1 µM [3]: 84% | remaining binding at 1 µM [4]: 7% | remaining binding at 1 µM [5]: 100% | remaining binding at 1 µM [6]: 85% | remaining binding at 1 µM [7]: 96% | remaining binding at 1 µM [8]: 100% | remaining binding at 1 µM [9]: 100% | % binding [10]: 100% | remaining binding at 1 µM [11]: 100% | % binding [12]: 96% | % binding [13]: 100% | remaining binding at 1 µM [14]: 100% | % binding [15]: 100% | remaining binding at 1 µM [16]: 10% | % binding [17]: 100% | remaining binding at 1 µM [18]: 91% | remaining binding at 1 µM [19]: 100% | remaining binding at 1 µM [20]: 100% | remaining binding at 1 µM [21]: 100% | remaining binding at 1 µM [22]: 95% | remaining binding at 1 µM [23]: 100% | remaining binding at 1 µM [24]: 86% | remaining binding at 1 µM [25]: 77% | remaining binding at 1 µM [26]: 100% | remaining binding at 1 µM [27]: 77% | remaining binding at 1 µM [28]: 100% | remaining binding at 1 µM [29]: 100% | remaining binding at 1 µM [30]: 95% | remaining binding at 1 µM [31]: 100% | remaining binding at 1 µM [32]: 90% | % binding [33]: 72% | remaining binding at 1 µM [34]: 100%
